Measurements taken from PMC4421842 (Nature Communications, 2015).
Values after ≈ are worked out from the molar mass of the structure shown. Values joined by “and” are separate entries in the source; they are usually repeats but may differ in a detail not shown here. Equal entries are not always repeated. Where two headings read alike, the source gives them in different places.

Tests used:
MRSA clinical isolates = assay: microbe, parasite or virus in culture; format: cell-based, S. aureus; conditions: Staphylococcus aureus, MRSA, read-out: MIC
Protocol: MRSA and P. aeruginosa isolates were from Cubist Pharmaceuticals (Lexington, MA). VRE isolates were from a previously published collection. E. coli strains were obtained either from ATCC or Professor Cari Vanderpool (UIUC). A. baumannii isolates were obtained from Dr John Quale[51].
Susceptibility testing was performed in triplicate, using the microdilution broth method as outlined by the Clinical and Laboratory Standards Institute[52]. Mueller Hinton (MH) broth was used.

[1] = system: FQR S. aureus (NRS3, FQR); assay: MIC, microdilution broth assay, FQR MRSA NRS3; format: cell-based; conditions: for MIC: Staphylococcus aureus
[2] = Tolerability in mice (maximal tolerated dose); format: in vivo; conditions: increasing doses, highest dose evaluated 50 mg kg^−1 by oral gavage
Protocol: (§1) The animal studies (PK, in-vivo toxicity and in-vivo efficacy) were carried out in strict accordance with the recommendations in the Guide for the Care and Use of Laboratory Animals of the National Institutes of Health. […] In these studies, 10- to 12-week-old female C57BL/6 mice purchased from Charles River were used. DNM, DNM-2 and DNM-3 were formulated as slurries at 8.3 mg ml^−1 in 25% Cremophor RH40/water (v/v). Before beginning the pharmacokinetic assessment, mice were first tested for their ability to tolerate the DNM, DNM-2 and DNM-3 at 50 mg kg^−1 (p.o.). […] At specified time points, mice were killed and blood was collected, centrifuged and the serum was frozen at −80 °C until analysis. The proteins in a 50-μl aliquot of serum were precipitated by the addition of 50 μl of acetonitrile and the sample was centrifuged to remove the proteins. Serum concentrations of DNM, DNM-2 and DNM-3 were determined by HPLC. PK parameters were determined using GraphPad Prism Version 5.00 for Windows.

[3] = system: WT S. aureus (ATCC 29213, WT); assay: microbe, parasite or virus in culture; format: cell-based; conditions: for MIC against S. aureus 29213: ATCC 29213; for MIC: Staphylococcus aureus
[4] = Pharmacokinetic assessment; format: in vivo, C57BL/6 mice
Protocol: as §1

physchem = conditions: pH 7.4
Protocol: Three independent replicates of each compound were performed.

[5] = NRS3, S84L GyrA and S80F ParC, three independent replicates
[6] = WT GyrA and WT ParC, three independent replicates
[7] = ATCC29213, ATCC 29213, WT GyrA and WT ParC, three independent replicates, read-out: MIC against S. aureus 29213
[8] = female, C57BL/6, mouse, in vivo, C57/BL6 mice, 50 mg kg-1 oral gavage, serum
[9] = NRS3, S84L GyrA and S80F ParC, three independent replicates, read-out: MIC against S. aureus NRS3

## CC1(C)S[C@@H]2[C@H](NC(=O)[C@H](N)c3ccccc3)C(=O)N2[C@H]1C(=O)O [Amp, Ampicillin, reference compound]
MRSA clinical isolates; strain SAU.1118
  MIC: > 64 µg/mL
MRSA clinical isolates; strain SAU.3024
  MIC: > 64 µg/mL
MRSA clinical isolates; strain SAU.3025
  MIC: 64 µg/mL (≈ 183 µM)
MRSA clinical isolates; strain SAU.419
  MIC: > 64 µg/mL
MRSA clinical isolates; strain SAU.42
  MIC: 2 µg/mL (≈ 5.72 µM)
MRSA clinical isolates; strain SAU.446
  MIC: > 64 µg/mL
MRSA clinical isolates; strain SAU.447
  MIC: > 64 µg/mL
MRSA clinical isolates; strain SAU.555
  MIC: > 64 µg/mL

## CCc1cc(=O)n2c3c(c4c(cc13)c(C)cc(=O)n4C)OC2 [DNM-3]
[1]; [5]
  MIC against S. aureus NRS3: 0.12 µg/mL (≈ 0.405 µM)
[2]
  tolerability: well tolerated up to the highest dose evaluated
[3]; [6]
  MIC against S. aureus 29213: 8 µg/mL (≈ 27 µM)
[3]; [7]
  MIC: 8 µg/mL (≈ 27 µM)
[4]; [8]
  AUC: 4000 ng·h/mL
  Tmax: 1.1 h
  half-life: 1.2 h
[4]; female, C57BL/6, mouse, mice, 50 mg kg^−1 oral dose, serum, read-out: Cmax (peak serum concentration)
  Cmax: 4.3 µM and 1260 ng/mL
[4]; mice, 50 mg kg^−1 oral dose
  oral bioavailability / serum exposure: intermediate level of bioavailability
[4]; mice, 50 mg kg^−1 oral dose, serum
  area under the curve: 4000 ng·h/mL
physchem
  solubility at 1 h: 27 µM (≈ 8 µg/mL)

## CO[C@@H]1[C@@H](OC(N)=O)[C@@H](O)[C@H](Oc2ccc3c(O)c(NC(=O)c4ccc(O)c(CC=C(C)C)c4)c(=O)oc3c2C)OC1(C)C [Novo, Novobiocin, reference compound]
MRSA clinical isolates; strain SAU.1118
  MIC: 0.5 µg/mL (≈ 0.816 µM)
MRSA clinical isolates; strain SAU.3017
  MIC: 0.5 µg/mL (≈ 0.816 µM)
MRSA clinical isolates; strain SAU.3021
  MIC: 0.25 µg/mL (≈ 0.408 µM)
MRSA clinical isolates; strain SAU.419
  MIC: 0.25 µg/mL (≈ 0.408 µM)
MRSA clinical isolates; strain SAU.42
  MIC: 0.5 µg/mL (≈ 0.816 µM)
MRSA clinical isolates; strain SAU.447
  MIC: 0.25 µg/mL (≈ 0.408 µM)
MRSA clinical isolates; strain SAU.555
  MIC: 0.25 µg/mL (≈ 0.408 µM)
MRSA clinical isolates; strain SAU.846
  MIC: 0.125 µg/mL (≈ 0.204 µM)

## Cc1cc(=O)[nH]c2c(O)c3c(cc12)c(C)cc(=O)n3C [compound 1]
[1]; NRS3, read-out: MIC against S. aureus NRS3
  MIC: 4 µg/mL (≈ 14.8 µM)
[3]; [7]
  MIC: 2 µg/mL (≈ 7.4 µM)

## CCc1cc(=O)n(C)c2c3c4c(cc12)c(C)cc(=O)n4CO3 [compound 4]
[1]; [5]
  MIC against S. aureus NRS3: 0.25 µg/mL (≈ 0.844 µM)
[3]; [6]
  MIC against S. aureus 29213: 8 µg/mL (≈ 27 µM)
[3]; [7]
  MIC: 8 µg/mL (≈ 27 µM)
physchem
  solubility at 1 h: 53 µM (≈ 15.7 µg/mL)

## Cc1cc(=O)n(C)c2c3c4c(cc12)c(C)cc(=O)n4C(C)O3 (stereo not drawn) [compound 5]
[3]; [6]
  MIC against S. aureus 29213: 4 µg/mL (≈ 13.5 µM)
[3]; [7]
  MIC: 4 µg/mL (≈ 13.5 µM)

## CCCc1cc(=O)n2c3c(c4c(cc13)c(C)cc(=O)n4C)OC2 [compound 6]
[1]; [5]
  MIC against S. aureus NRS3: 0.25 µg/mL (≈ 0.806 µM)
[3]; [6]
  MIC against S. aureus 29213: 16 µg/mL (≈ 51.6 µM)
[3]; [7]
  MIC: 16 µg/mL (≈ 51.6 µM)

## CCCc1cc(=O)n(C)c2c3c4c(cc12)c(C)cc(=O)n4CO3 [compound 7]
[1]; [5]
  MIC against S. aureus NRS3: 1 µg/mL (≈ 3.22 µM)
[3]; [6]
  MIC against S. aureus 29213: 16 µg/mL (≈ 51.6 µM)
[3]; [7]
  MIC: 16 µg/mL (≈ 51.6 µM)

## CCCCCn1c(=O)cc(C)c2cc3c(C)cc(=O)n4c3c(c21)OC4 [compound 9]
[1]; [5]
  MIC against S. aureus NRS3: 0.25 µg/mL (≈ 0.739 µM)
[3]; [6]
  MIC against S. aureus 29213: 32 µg/mL (≈ 94.6 µM)
[3]; [7]
  MIC: 32 µg/mL (≈ 94.6 µM)

## CCCCCCn1c(=O)cc(C)c2cc3c(C)cc(=O)n4c3c(c21)OC4 [compound 10]
[1]; [5]
  MIC against S. aureus NRS3: 1 µg/mL (≈ 2.84 µM)
[3]; [6]
  MIC against S. aureus 29213: > 64 µg/mL
[3]; [7]
  MIC: > 64 µg/mL

## Cc1cc(=O)n2c3c(c4c(cc13)c(C)cc(=O)n4CC(C)C)OC2 [compound 11]
[1]; [5]
  MIC against S. aureus NRS3: 2 µg/mL (≈ 6.17 µM)
[3]; [6]
  MIC against S. aureus 29213: > 32 µg/mL
[3]; [7]
  MIC: > 32 µg/mL

## Cc1cc(=O)n2c3c(c4c(cc13)c(C)cc(=O)n4CC(C)(C)C)OC2 [compound 12]
[1]; [5]
  MIC against S. aureus NRS3: 16 µg/mL (≈ 47.3 µM)
[3]; [6]
  MIC against S. aureus 29213: 32 µg/mL (≈ 94.6 µM)
[3]; [7]
  MIC: 32 µg/mL (≈ 94.6 µM)

## CCc1cc(=O)n(C)c2c3c4c(cc12)c(CC)cc(=O)n4CO3 [compound 13]
[1]; [5]
  MIC against S. aureus NRS3: 16 µg/mL (≈ 51.6 µM)
[3]; [6]
  MIC against S. aureus 29213: > 32 µg/mL
[3]; [7]
  MIC: > 32 µg/mL
physchem
  solubility at 1 h: 48 ± 8 µM (≈ 14.9 µg/mL)

## CCCCn1c(=O)cc(CCC)c2cc3c(CCC)cc(=O)n4c3c(c21)OC4 [compound 15]
[1]; [5]
  MIC against S. aureus NRS3: 32 µg/mL (≈ 84.1 µM)
[3]; [6]
  MIC against S. aureus 29213: > 32 µg/mL
[3]; [7]
  MIC: > 32 µg/mL

## CCCCCCCCCC(=O)N[C@@H](Cc1c[nH]c2ccccc12)C(=O)N[C@H](CC(N)=O)C(=O)N[C@@H](CC(=O)O)C(=O)N[C@@H]1C(=O)NCC(=O)N[C@@H](CCCN)C(=O)N[C@@H](CC(=O)O)C(=O)N[C@H](C)C(=O)N[C@@H](CC(=O)O)C(=O)NCC(=O)N[C@H](CO)C(=O)N[C@@H]([C@H](C)CC(=O)O)C(=O)N[C@@H](CC(=O)c2ccccc2N)C(=O)O[C@@H]1C [daptomycin, reference compound]
[1]; [5]
  MIC against S. aureus NRS3: 8 µg/mL (≈ 4.94 µM)
[1]; [9]
  MIC: 8 µg/mL (≈ 4.94 µM)
[3]; [7]
  MIC: 2 µg/mL (≈ 1.23 µM)

## CC(=O)NC[C@H]1CN(c2ccc(N3CCOCC3)c(F)c2)C(=O)O1 [linezolid, reference compound]
[1]; [5]
  MIC against S. aureus NRS3: 0.5 µg/mL (≈ 1.48 µM)
[1]; [9]
  MIC: 0.5 µg/mL (≈ 1.48 µM)

## CN[C@H](CC(C)C)C(=O)N[C@H]1C(=O)N[C@@H](CC(N)=O)C(=O)N[C@H]2C(=O)N[C@H]3C(=O)N[C@H](C(=O)N[C@H](C(=O)O)c4cc(O)cc(O)c4-c4cc3ccc4O)[C@H](O)c3ccc(c(Cl)c3)Oc3cc2cc(c3O[C@@H]2O[C@H](CO)[C@@H](O)[C@H](O)[C@H]2O[C@H]2C[C@](C)(N)[C@H](O)[C@H](C)O2)Oc2ccc(cc2Cl)[C@H]1O [vancomycin, reference compound]
MRSA clinical isolates; strain SAU.1118
  MIC: 2 µg/mL (≈ 1.38 µM)
MRSA clinical isolates; strain SAU.2996
  MIC: 1 µg/mL (≈ 0.69 µM)
MRSA clinical isolates; strain SAU.3017
  MIC: 1 µg/mL (≈ 0.69 µM)
MRSA clinical isolates; strain SAU.3021
  MIC: 1 µg/mL (≈ 0.69 µM)
MRSA clinical isolates; strain SAU.3024
  MIC: 2 µg/mL (≈ 1.38 µM)
MRSA clinical isolates; strain SAU.419
  MIC: 4 µg/mL (≈ 2.76 µM)
MRSA clinical isolates; strain SAU.42
  MIC: 1 µg/mL (≈ 0.69 µM)
MRSA clinical isolates; strain SAU.446
  MIC: 2 µg/mL (≈ 1.38 µM)
MRSA clinical isolates; strain SAU.555
  MIC: 1 µg/mL (≈ 0.69 µM)
MRSA clinical isolates; strain SAU.846
  MIC: 8 µg/mL (≈ 5.52 µM)
[1]; [5]
  MIC against S. aureus NRS3: 8 µg/mL (≈ 5.52 µM)
[1]; [9]
  MIC: 8 µg/mL (≈ 5.52 µM)
[3]; ATCC29213, read-out: MIC against S. aureus 29213
  MIC: 1 µg/mL (≈ 0.69 µM)
